This note sets out measurements from ChEMBL document CHEMBL1156476, “Inhibition of mammalian target of rapamycin signaling by 2-(morpholin-1-yl)pyrimido[2,1-alpha]isoquinolin-4-one” (J Biol Chem, 2007).

The target of assay [1] is T1, Serine/threonine-protein kinase mTOR (Homo sapiens, UniProt P42345). In words: Inhibition of mTOR.
In assay [2] the target is DNA-dependent protein kinase catalytic subunit (Homo sapiens, UniProt P78527). Put plainly: Inhibition of DNA-PK.
Assay [3] can be described thus: Antiproliferative activity against TSC1-deficient mouse embryo fibroblasts assessed as decrease in cell number at 100 nM after 2 day relative to control. It counts as functional, Fibroblast. Also on record: scale not given: the % may be the effect or the level left.
For assay [4], the target named is RAC-alpha serine/threonine-protein kinase (Mus musculus) (UniProt P31750). Put plainly: Increase in Akt phosphorylation in TSC1-deficient mouse embryo fibroblasts assessed as Ser 473 phosphorylation at 100 nM after 24 hrs by Western blot. (In general: A western blot detects proteins with antibodies after separation by electrophoresis.)
For assay [5], the target named is Dual specificity mitogen-activated protein kinase kinase 1 (Homo sapiens) (UniProt Q02750). In words: Inhibition of MAP2K1 at 5 uM.
Sequence of Dual specificity mitogen-activated protein kinase kinase 1 (Homo sapiens) (Q02750 whole entry): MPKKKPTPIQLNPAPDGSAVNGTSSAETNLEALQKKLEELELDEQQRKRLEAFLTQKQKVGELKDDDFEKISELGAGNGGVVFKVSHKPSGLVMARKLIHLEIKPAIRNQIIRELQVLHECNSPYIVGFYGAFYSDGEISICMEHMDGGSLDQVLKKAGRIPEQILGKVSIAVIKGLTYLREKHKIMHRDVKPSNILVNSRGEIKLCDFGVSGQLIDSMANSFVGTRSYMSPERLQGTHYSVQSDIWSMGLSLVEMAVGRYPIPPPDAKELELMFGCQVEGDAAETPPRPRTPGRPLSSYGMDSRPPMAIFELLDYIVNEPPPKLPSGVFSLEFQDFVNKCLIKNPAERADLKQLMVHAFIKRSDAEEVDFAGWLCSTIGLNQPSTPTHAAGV
The target of assay [6] is Proto-oncogene tyrosine-protein kinase receptor Ret (Homo sapiens) (UniProt P07949). In words: Inhibition of RET at 5 uM.
Assay [7] concerns the target T1, Serine/threonine-protein kinase mTOR. Put plainly: Inhibition of PDGF-activated mTOR signaling in rat-1 fibroblasts assessed as S6K1 Thr389 site phosphorylation at 10 uM by Western blot.
The target of assay [8] is Tyrosine-protein kinase BTK (Homo sapiens) (UniProt Q06187). Put plainly: Inhibition of BTK at 5 uM.
Assay [9] has as its target Rho-associated protein kinase 1 (Homo sapiens) (UniProt Q13464). Put plainly: Inhibition of ROCK1 at 5 uM.
For assay [10], the target named is T1, Serine/threonine-protein kinase mTOR. In words: Inhibition of IGF1-activated mTOR signaling in human M059J glioma cells assessed as S6K1 Thr389 site phosphorylation at 10 uM by Western blot. Type of assay: cell-based.
Assay [11] concerns the target Phosphatidylinositol 4,5-bisphosphate 3-kinase catalytic subunit alpha isoform (Homo sapiens) (UniProt P42336). Put plainly: Inhibition of p110-alpha PI3K assessed as p85alpha autophosphorylation at 25 uM by autoradiography.
Assay [12] concerns the target Mitogen-activated protein kinase 3 (Homo sapiens) (UniProt P27361). Put plainly: Inhibition of MAPK3 at 5 uM.
Assay [13] has as its target Serine/threonine-protein kinase pim-1 (Homo sapiens) (UniProt P11309). In words: Inhibition of PIM1 at 5 uM.
Assay [14] concerns the target Cyclin-dependent kinase 1/cyclin B1 (Homo sapiens) (UniProt P06493+P14635). In words: Inhibition of CDK1/Cyclin B at 5 uM. Type of assay: protein-complex assay.
A short description of assay [15]: Antiproliferative activity against TSC1-deficient mouse embryo fibroblasts assessed as decrease in cell number at 10 uM after 2 day relative to control. Type of assay: functional, Fibroblast. Also on record: scale not given: the % may be the effect or the level left.
Assay [16] addresses Mitogen-activated protein kinase 14 (Homo sapiens) (UniProt Q16539). In words: Inhibition of MAPK14 at 5 uM.
For assay [17], the target named is T1, Serine/threonine-protein kinase mTOR. Put plainly: Inhibition of mTOR kinase activity in raptor immunoprecipitates expressed in human 293F cells at 10 uM by autoradiography. It counts as cell-based.
The target of assay [18] is Fibroblast growth factor receptor 1 (Homo sapiens) (UniProt P11362). Put plainly: Inhibition of FGFR1 at 5 uM.
Assay [19] in a line: Antiproliferative activity against TSC1-deficient mouse embryo fibroblasts assessed as decrease in cell number at 10 uM after 1 day relative to control. The arrangement: scale not given: the % may be the effect or the level left. It counts as functional, Fibroblast.
The target in assay [20] is Casein kinase I isoform gamma-2 (Homo sapiens) (UniProt P78368). Put plainly: Inhibition of CSNK1G2 at 5 uM.
The target in assay [21] is RAC-alpha serine/threonine-protein kinase (Homo sapiens) (UniProt P31749). In words: Inhibition of AKT1 at 5 uM.
In a further assay the test system is COS-7. In words: Inhibition of Akt T308D mutant transfected in african green monkey COS7 cells assessed as insulin-induced […] phosphorylation by Western blot. It counts as cell-based.
For assay [22], the target named is Insulin receptor (Homo sapiens) (UniProt P06213). Put plainly: Inhibition of INSR at 5 uM.
Assay [23] concerns the target Receptor tyrosine-protein kinase erbB-2 (Homo sapiens) (UniProt P04626). Put plainly: Inhibition of ERBB2 at 5 uM.
Assay [24] has as its system RAC-alpha serine/threonine-protein kinase (Homo sapiens), P31749 [S473D]. Put plainly: Inhibition of Akt S473D mutant transfected in african green monkey COS7 cells assessed as insulin-induced […] phosphorylation by Western blot. It counts as cell-based. To be noted: COS-7.
Assay [25] deals with MAP kinase-activated protein kinase 2 (Homo sapiens) (UniProt P49137). In words: Inhibition of MAPKAPK2 at 5 uM.
Assay [26] has as its target Vascular endothelial growth factor receptor 2 (Homo sapiens) (UniProt P35968). Put plainly: Inhibition of KDR at 5 uM.
The target in assay [27] is Casein kinase II subunit alpha (Homo sapiens) (UniProt P68400). Put plainly: Inhibition of CSNK2A1 at 5 uM.
The target in assay [28] is Phosphorylase b kinase gamma catalytic chain, liver/testis isoform (Homo sapiens) (UniProt P15735). Put plainly: Inhibition of PHKG2 at 5 uM.
Assay [29] concerns the target Insulin-like growth factor 1 receptor (Homo sapiens) (UniProt P08069). In words: Inhibition of IGF1R at 5 uM.
The target of assay [30] is Ribosomal protein S6 kinase beta-1 (Mus musculus) (UniProt Q8BSK8). Put plainly: Blockade of S6K1 phosphorylation in TSC1-deficient mouse embryo fibroblasts assessed as Thr389 phosphorylation at 10 uM after 24 hrs by Western blot.
Sequence of Ribosomal protein S6 kinase beta-1 (Mus musculus) (Q8BSK8 whole entry): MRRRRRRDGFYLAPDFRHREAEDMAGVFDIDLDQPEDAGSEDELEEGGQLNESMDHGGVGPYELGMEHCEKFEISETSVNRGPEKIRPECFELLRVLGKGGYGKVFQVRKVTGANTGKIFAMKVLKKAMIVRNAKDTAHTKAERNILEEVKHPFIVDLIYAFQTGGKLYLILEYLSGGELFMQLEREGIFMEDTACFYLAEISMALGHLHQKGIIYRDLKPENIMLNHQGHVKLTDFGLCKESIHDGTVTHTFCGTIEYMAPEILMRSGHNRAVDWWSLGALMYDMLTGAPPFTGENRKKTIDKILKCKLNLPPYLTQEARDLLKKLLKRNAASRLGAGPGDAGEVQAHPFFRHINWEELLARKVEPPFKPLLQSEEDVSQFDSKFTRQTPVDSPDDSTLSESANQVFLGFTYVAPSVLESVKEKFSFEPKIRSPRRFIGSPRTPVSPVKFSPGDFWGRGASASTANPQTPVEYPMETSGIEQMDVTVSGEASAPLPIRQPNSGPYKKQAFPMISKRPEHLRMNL
Assay [31] concerns the target PI3-kinase p110-alpha/p85-alpha (Homo sapiens, UniProt P42336). In words: Inhibition of p110alpha/p85-alpha PI3K. Type of assay: protein-complex assay.
Assay [32] has as its target T1, Serine/threonine-protein kinase mTOR. Put plainly: Inhibition of mTOR kinase activity in epitope-tagged AU1 immunoprecipitates expressed in human 293F cells at 5 uM by autoradiography. Type of assay: cell-based.
Assay [33] shares this target. In words: Inhibition of IGF1-activated mTOR signaling in human M059J glioma cells assessed as Akt Ser473 site phosphorylation at 10 uM by Western blot. Type of assay: cell-based.
In assay [34] the target is Tyrosine-protein kinase Lck (Homo sapiens) (UniProt P06239). Put plainly: Inhibition of LCK at 5 uM.
Assay [35] deals with Aurora kinase A (Homo sapiens) (UniProt O14965). In words: Inhibition of STK6 at 5 uM.
In assay [36] the target is Glycogen synthase kinase-3 beta (Homo sapiens) (UniProt P49841). Put plainly: Inhibition of GSK3B at 5 uM.
Sequence of Glycogen synthase kinase-3 beta (Homo sapiens) (P49841 whole entry, looked up): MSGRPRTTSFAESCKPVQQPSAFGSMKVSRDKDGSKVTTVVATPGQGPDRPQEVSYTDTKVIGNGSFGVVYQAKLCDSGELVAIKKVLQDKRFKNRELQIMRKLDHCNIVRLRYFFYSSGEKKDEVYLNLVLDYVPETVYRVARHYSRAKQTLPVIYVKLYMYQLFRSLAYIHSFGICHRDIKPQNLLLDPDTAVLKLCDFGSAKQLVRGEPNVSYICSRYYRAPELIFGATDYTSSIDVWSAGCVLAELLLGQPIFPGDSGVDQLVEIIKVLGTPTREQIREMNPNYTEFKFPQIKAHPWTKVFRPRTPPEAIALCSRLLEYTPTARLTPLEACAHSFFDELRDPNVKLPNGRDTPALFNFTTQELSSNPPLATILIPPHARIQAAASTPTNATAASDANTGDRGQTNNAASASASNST
Assay [37] deals with Epidermal growth factor receptor (Homo sapiens) (UniProt P00533). In words: Inhibition of EGFR at 5 uM.
The target in assay [38] is Hepatocyte growth factor receptor (Homo sapiens) (UniProt P08581). In words: Inhibition of MET at 5 uM.
For assay [39], the target named is Tyrosine-protein kinase SYK (Homo sapiens) (UniProt P43405). Put plainly: Inhibition of SYK at 5 uM.
The subject of assay [40] is Fibroblast. Put plainly: Induction of apoptosis in TSC1-deficient mouse embryo fibroblasts assessed as level of nucleosomes in cell cytoplasm at 10 uM after 24 hrs. Type of assay: functional, cell-based.
Assay [41] deals with Mitogen-activated protein kinase kinase kinase kinase 4 (Homo sapiens) (UniProt O95819). Put plainly: Inhibition of MAP4K4 at 5 uM.
Assay [42] deals with Ribosomal protein S6 kinase alpha-3 (Homo sapiens) (UniProt P51812). In words: Inhibition of RPS6KA3 at 5 uM.
Assay [43] addresses T1, Serine/threonine-protein kinase mTOR. In words: Inhibition of PDGF-activated mTOR signaling in rat-1 fibroblasts assessed as Akt Ser473 site phosphorylation at 10 uM by Western blot.
Assay [44] addresses Ribosomal protein S6 kinase beta-1 (Mus musculus) (UniProt Q8BSK8). Put plainly: Blockade of S6K1 phosphorylation in TSC1-deficient mouse embryo fibroblasts assessed as Thr389 phosphorylation at 100 nM after 24 hrs by Western blot.
The subject of assay [45] is Fibroblast. Put plainly: Induction of apoptosis in TSC1-deficient mouse embryo fibroblasts assessed as level of nucleosomes in cell cytoplasm at 100 nM after 24 hrs. It counts as functional, cell-based.
The target in assay [46] is Mast/stem cell growth factor receptor Kit (Homo sapiens) (UniProt P10721). Put plainly: Inhibition of KIT at 5 uM.
Assay [47] addresses Angiopoietin-1 receptor (Homo sapiens) (UniProt Q02763). Put plainly: Inhibition of TEK at 5 uM.
For assay [48], the target named is Platelet-derived growth factor receptor beta (Homo sapiens) (UniProt P09619). Put plainly: Inhibition of PDGFRbeta at 5 uM.
Assay [49] concerns the target Serine/threonine-protein kinase Chk1 (Homo sapiens) (UniProt O14757). Put plainly: Inhibition of CHEK1 at 5 uM.
Assay [50] has as its target Receptor-type tyrosine-protein kinase FLT3 (Homo sapiens) (UniProt P36888). In words: Inhibition of FLT3 at 5 uM.
The target of assay [51] is Alpha-1A adrenergic receptor (Homo sapiens) (UniProt P35348). Put plainly: Inhibition of phenylephrine-induced human adrenergic alpha1A receptor activity expressed in rat-1 fibroblasts assessed as S6K1 Thr389 site phosphorylation by Western blot.
For assay [52], the target named is Protein kinase C beta type (Homo sapiens) (UniProt P05771). In words: Inhibition of PRKCB1 at 5 uM.
Assay [53] has as its target Tyrosine-protein kinase JAK3 (Homo sapiens) (UniProt P52333). Put plainly: Inhibition of JAK3 at 5 uM.
Assay [54] addresses Dual specificity tyrosine-phosphorylation-regulated kinase 3 (Homo sapiens) (UniProt O43781). Put plainly: Inhibition of DYRK3 at 5 uM.
In assay [55] the target is Interleukin-1 receptor-associated kinase 4 (Homo sapiens) (UniProt Q9NWZ3). In words: Inhibition of IRAK4 at 5 uM.
Sequence of Interleukin-1 receptor-associated kinase 4 (Homo sapiens) (Q9NWZ3 whole entry): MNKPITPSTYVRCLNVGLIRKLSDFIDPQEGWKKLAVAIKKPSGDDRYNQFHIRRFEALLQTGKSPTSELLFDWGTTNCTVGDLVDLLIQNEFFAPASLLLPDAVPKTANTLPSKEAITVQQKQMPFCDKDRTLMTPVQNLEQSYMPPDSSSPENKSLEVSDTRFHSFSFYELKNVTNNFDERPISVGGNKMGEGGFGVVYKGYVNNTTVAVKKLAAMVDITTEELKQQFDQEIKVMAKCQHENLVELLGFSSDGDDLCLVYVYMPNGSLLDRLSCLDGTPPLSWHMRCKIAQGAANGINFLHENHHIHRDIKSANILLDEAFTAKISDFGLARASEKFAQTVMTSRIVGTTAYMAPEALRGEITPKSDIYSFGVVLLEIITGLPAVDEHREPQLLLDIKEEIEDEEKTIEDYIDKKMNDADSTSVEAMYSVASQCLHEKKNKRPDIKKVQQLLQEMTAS
Assay [56] in a line: Inhibition of PDGFR in rat-1 cells assessed as PDGF-induced Erk phosphorylation by Western blot. It counts as cell-based.
Assay [57] concerns the target Tyrosine-protein kinase ABL1 (Homo sapiens) (UniProt P00519). In words: Inhibition of ABL1 at 5 uM.
In assay [58] the test system is Fibroblast. Put plainly: Antiproliferative activity against TSC1-deficient mouse embryo fibroblasts assessed as decrease in cell number. Type of assay: functional, cell-based.
In assay [59] the target is T1, Serine/threonine-protein kinase mTOR. In words: Inhibition of PDGF-activated mTOR signaling in rat-1 fibroblasts assessed as Akt Ser473 site phosphorylation by Western blot.
Assay [60] shares this target. Put plainly: Inhibition of PDGF-activated mTOR signaling in rat-1 fibroblasts assessed as S6K1 Thr389 site phosphorylation by Western blot.

Active and inactive are the calls of the source. The rule behind the calls is not given here.

Broadly, the IC50 is the midpoint of a concentration-inhibition curve. As a reminder, the inhibition is the drop in the measured response relative to a control, in per cent.

Sequence of Dual specificity tyrosine-phosphorylation-regulated kinase 3 (Homo sapiens) (O43781 whole entry): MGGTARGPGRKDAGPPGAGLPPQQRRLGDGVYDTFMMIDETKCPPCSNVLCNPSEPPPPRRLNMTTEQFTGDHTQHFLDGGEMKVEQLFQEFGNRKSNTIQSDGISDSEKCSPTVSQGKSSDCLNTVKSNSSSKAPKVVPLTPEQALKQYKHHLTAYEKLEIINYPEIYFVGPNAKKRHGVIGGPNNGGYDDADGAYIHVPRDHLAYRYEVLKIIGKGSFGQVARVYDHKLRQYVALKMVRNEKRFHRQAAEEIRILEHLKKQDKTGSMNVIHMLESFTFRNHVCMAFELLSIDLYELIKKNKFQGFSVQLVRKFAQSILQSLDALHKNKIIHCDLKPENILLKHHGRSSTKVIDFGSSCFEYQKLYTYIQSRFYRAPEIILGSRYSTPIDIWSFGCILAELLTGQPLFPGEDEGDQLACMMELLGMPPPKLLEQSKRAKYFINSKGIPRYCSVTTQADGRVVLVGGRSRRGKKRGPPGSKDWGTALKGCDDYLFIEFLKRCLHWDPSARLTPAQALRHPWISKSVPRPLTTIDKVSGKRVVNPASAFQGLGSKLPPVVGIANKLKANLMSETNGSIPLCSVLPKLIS
Sequence of Receptor tyrosine-protein kinase erbB-2 (Homo sapiens) (P04626 whole entry): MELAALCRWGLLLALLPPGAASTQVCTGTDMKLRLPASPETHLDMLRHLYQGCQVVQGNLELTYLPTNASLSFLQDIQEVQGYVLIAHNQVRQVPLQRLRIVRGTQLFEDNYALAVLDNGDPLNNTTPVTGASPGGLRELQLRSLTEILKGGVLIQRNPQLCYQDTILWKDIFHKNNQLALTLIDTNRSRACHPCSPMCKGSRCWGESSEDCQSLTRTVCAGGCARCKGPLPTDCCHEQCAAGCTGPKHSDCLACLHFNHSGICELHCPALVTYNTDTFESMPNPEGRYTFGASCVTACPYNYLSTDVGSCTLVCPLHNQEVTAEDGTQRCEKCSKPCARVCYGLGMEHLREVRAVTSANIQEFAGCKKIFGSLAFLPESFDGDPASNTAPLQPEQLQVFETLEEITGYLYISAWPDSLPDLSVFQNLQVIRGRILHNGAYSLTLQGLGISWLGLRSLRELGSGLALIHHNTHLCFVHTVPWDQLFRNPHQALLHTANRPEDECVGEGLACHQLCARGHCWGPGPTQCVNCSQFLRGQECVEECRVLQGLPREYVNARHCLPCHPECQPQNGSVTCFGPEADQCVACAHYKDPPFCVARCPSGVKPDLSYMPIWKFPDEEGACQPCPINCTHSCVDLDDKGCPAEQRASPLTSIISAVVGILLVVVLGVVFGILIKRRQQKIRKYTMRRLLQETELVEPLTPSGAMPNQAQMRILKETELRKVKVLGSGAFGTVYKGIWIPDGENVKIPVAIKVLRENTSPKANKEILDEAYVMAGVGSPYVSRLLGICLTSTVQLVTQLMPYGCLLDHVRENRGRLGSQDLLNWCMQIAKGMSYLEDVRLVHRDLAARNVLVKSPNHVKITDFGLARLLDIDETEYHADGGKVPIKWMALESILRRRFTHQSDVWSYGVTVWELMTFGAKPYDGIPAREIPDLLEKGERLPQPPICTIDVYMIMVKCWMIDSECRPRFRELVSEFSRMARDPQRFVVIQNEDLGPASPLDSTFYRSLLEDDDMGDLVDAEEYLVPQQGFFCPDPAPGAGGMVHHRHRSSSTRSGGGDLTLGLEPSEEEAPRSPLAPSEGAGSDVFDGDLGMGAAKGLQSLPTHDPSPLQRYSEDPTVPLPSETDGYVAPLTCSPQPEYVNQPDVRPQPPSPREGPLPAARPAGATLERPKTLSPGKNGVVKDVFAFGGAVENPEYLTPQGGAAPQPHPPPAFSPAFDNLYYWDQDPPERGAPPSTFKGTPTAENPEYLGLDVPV
Sequence of Cyclin-dependent kinase 1/cyclin B1 (Homo sapiens) (P06493 whole entry, looked up): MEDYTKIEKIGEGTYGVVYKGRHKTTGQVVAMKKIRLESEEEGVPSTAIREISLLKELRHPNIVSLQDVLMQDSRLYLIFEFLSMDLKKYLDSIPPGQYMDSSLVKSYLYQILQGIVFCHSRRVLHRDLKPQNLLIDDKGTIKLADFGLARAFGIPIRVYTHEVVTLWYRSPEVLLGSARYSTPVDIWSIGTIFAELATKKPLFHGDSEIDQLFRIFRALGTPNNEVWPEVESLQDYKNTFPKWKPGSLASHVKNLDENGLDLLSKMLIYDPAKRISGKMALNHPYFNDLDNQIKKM
Sequence of Cyclin-dependent kinase 1/cyclin B1 (Homo sapiens) (P14635 whole entry, looked up): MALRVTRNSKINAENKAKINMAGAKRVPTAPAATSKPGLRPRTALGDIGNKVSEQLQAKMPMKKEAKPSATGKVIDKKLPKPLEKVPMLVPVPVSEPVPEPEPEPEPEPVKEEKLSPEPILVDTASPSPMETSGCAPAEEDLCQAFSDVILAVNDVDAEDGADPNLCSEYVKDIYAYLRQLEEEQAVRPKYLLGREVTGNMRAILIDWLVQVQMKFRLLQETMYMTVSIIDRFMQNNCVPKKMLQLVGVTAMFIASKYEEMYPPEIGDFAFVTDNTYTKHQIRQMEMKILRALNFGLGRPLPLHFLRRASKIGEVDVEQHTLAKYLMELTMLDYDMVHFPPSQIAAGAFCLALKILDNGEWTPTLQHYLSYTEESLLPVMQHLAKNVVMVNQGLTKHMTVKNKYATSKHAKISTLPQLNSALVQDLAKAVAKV
Sequence of Mitogen-activated protein kinase 3 (Homo sapiens) (P27361 whole entry, looked up): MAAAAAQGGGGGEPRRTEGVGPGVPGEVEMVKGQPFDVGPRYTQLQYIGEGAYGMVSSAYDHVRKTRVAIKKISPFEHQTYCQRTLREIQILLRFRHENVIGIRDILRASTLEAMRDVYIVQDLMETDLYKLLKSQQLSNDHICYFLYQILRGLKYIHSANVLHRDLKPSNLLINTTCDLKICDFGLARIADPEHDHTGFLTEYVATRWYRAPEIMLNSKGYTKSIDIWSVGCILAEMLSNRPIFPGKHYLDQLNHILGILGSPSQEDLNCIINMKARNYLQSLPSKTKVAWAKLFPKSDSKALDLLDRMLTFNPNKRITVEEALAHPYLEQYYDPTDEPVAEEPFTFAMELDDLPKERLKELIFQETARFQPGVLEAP

For `O=C(c1ccccc1)c1ccc(N2CCOCC2)cc1O`, the half-inhibitory concentration (IC50) in assay [1] is above 100 µM; in assay [2], 0.27 µM.

With `CO[C@H]1C[C@@H]2CC[C@@H](C)[C@@](O)(O2)C(=O)C(=O)N2CCCC[C@H]2C(=O)O[C@H]([C@H](C)C[C@@H]2CC[C@@H](O)[C@H](OC)C2)CC(=O)[C@H](C)/C=C(\C)[C@@H](O)[C@@H](OC)C(=O)[C@H](C)C[C@H](C)/C=C/C=C/C=C/1C` [SIROLIMUS], the Activity in assay [3] is 57%. Also, the result in [4] was Active.

Turning to `O=c1cc(N2CCOCC2)nc2c3ccccc3ccn12`, the inhibition was -8% in assay [5]; -4% in [6]; 9% in assay [8]; 13% in assay [9]; -3% in [12]; 44% in assay [13]. Further, the inhibition came out at 3% in [14]; 17% in assay [16]; 78% in assay [17]; 0% in [18]; 2% in assay [20]; 5% in assay [21]. Also, the inhibition is -3% in [22]; 3% in assay [23]; 40% in assay [25]; 0% in assay [26]; 3% in [27]; -6% in [28]. In addition, the inhibition in assay [29] is -8%; in assay [32] it was 67%; in assay [34], -3%; in assay [35] it was 44%; in [36], 0%; in assay [37], -3%. The inhibition worked out at 19% in assay [38]; 14% in assay [39]; 3% in assay [41]; 7% in assay [42]; 13% in [46]; 12% in [47]. The inhibition in [48] is -4%; in assay [49] it was -9%; in [50] it was 36%; in assay [52], 8%; in [53], 2%; in assay [54], 5%. In addition, the inhibition in assay [55] and in [57] was -5% throughout. Moreover, the result (in [7]; in assay [10]; in assay [24]; in assay [30]; in assay [33]; in the assay on Fibroblast [40]) was Active. Further, the result in [43], in [44] and in assay [51] was Active. For the same compound, the result (in [11]; with COS-7; in the assay on Fibroblast [45]; in assay [56]) was inactive. Further, the Activity in assay [15] was 84%; in [19] it was 54%; in the assay with Fibroblast [58], “Dose-dependent effect”. Besides, the IC50 in [31] was above 100 µM.

Regarding `O=c1cc(N2CCOCC2)oc2c(-c3ccccc3)cccc12` [LY-294002], the IC50 in assay [1] was 5 µM. Further, the result in [59] and in assay [60] was Active.
